In patent US9737517B2, “Pharmaceutical use of hexahydro-dibenzo[a,g]quinolizine compounds” (SHANGHAI INSTITUTE OF MATERIA MEDICA, CHINESE ACADEMY OF …, priority 2013, dated 2017):
Converted amounts (≈) assume the structure as drawn. “And” between values parts separate entries of the source, which are not always exact repeats. Identical values can stand only once. Like-named read-outs stand apart in the source and are kept apart here.

Columns and labels:
α1D-AR = biological target: T1, α1D-AR (Homo sapiens, UniProt P25100); test: Calcium mobilization (Fluo-4) antagonism of phenylephrine in HEK293 cells expressing α1D-AR/Gα16; assay type: cell-based; conditions: phenylephrine 30 nM
T1 construct: expressed in transfected cells; host or cells: HEK293
T1 sequence (P25100 1-572): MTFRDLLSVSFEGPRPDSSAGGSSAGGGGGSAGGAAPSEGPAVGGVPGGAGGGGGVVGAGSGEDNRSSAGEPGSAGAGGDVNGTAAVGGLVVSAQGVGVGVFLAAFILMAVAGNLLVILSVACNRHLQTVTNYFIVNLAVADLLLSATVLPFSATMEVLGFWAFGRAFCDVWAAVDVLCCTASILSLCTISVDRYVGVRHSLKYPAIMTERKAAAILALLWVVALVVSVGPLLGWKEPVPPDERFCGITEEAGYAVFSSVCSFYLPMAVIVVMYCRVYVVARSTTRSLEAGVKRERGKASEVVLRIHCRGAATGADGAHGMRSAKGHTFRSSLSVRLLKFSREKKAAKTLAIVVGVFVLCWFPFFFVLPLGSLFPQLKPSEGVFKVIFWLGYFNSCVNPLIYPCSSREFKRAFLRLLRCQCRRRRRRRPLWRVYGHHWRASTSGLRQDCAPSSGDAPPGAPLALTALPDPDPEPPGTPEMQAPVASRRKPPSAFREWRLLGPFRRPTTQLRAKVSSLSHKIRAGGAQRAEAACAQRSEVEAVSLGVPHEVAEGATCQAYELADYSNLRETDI
Experimental: HEK293 cells stably expressing α1A-AR/Gα16, α1B-AR/Gα16, α1D-AR/Gα16 were seeded in a 96-well plate, and cultured for 24 hours. Then the medium was removed and 40 μL Hank's balanced salt solution (HBSS: containing 5.4 mM KCl, 0.3 mM Na2HPO4, 0.4 mM KH2PO4, 4.2 mM NaHCO3, 1.3 mM CaCl2, 0.5 mM MgCl2, 0.6 mM MgSO4, 137 mM NaCl, 5.6 mM D-glucose, and 250 μM sulfinpyrazone, pH 7.4) containing 2 μM Fluo-4 AM was added into each well, and incubated at 37° C. for 45 min. Dye was removed and 50 μL of HBSS containing either test compound or 1% DMSO (negative control) was added. After incubation at room temperature for 10 min, Flex Station 3 microplate reader was used to read the value. At specified time points, 25 μL of agonist (phenylephrine, final concentration 30 nM) was dispensed into the well automatically using the reader and fluorescence intensity change of dye caused by intracellular calcium concentration change was detected at an excitation wavelength of 485 nm and an emission wavelength of 525 nm.
After incubation with different drugs, the reaction rate of cells to 1-AR agonist phenylephrine was calculated as follows: Reaction rate %=(D−B)/(S−B)*100%;
The reaction rate of the same drug at different doses was tested using GraphPad Prism software by non-linear regression analysis, and the dose-response curve was obtained and IC50 values was measured. Data were obtained from three separate experiments, and each experiment included three duplicate wells.

pKa determination = assay type: physicochemical
[1] = Stability of the compound on heating; assay type: physicochemical; conditions: heated at 80° C. for 24 hours
Experimental: Compound DC037009 was heated at 80° C. for 24 hours, and the compound purity only varied 0.5%.

[2] = Solubility in different pH solution and pH changes of the solution; assay type: physicochemical
[3] = Pharmacokinetics study in rats (gavage and intravenous); assay type: in vivo, SD rats; conditions: rat
Experimental: (§1) Gavage administration to rats. 3 healthy SD rats (male, weighed 200-220 g) were fasted for 12 hours before the administration but were allowed to drink water. Compound DC037009 was formulated with 10% DMSO/10% Tween 80/80% saline and was administered by 20 mg/kg dose and the dosing volume was 10 mL/kg.
as §1, with “Intravenous administration” for “Gavage administration”, “administered via the rat tail vein injection” for “administered”, “by 10” for “by 20”, “was 5” for “was 10”
Intravenous administration: 5 min, 0.25, 0.5, 1.0, 2.0, 3.0, 5.0, 7.0, 9.0 and 24 hrs after administration.
At the above time points, 0.3 mL blood obtained from post-eye venous plexus of rat was set into a heparinized tube, which was 11000 rpm centrifuged for 5 min, and the plasma was separated and frozen at −20° C. in a refrigerator.

[4] = pH = 1 solution after adding compound
[5] = pH = 2 solution after adding compound
[6] = pH = 4 solution after adding compound
[7] = pH = 6 solution after adding compound
[8] = pH = 8 solution after adding compound
[9] = male, SD, plasma, po, 20 mg/kg, gavage 20 mg/kg, individual animals 1-3
[10] = male, SD, plasma, po, 20 mg/kg, gavage 20 mg/kg, mean of 3
[11] = gavage 20 mg/kg, individual animals 1-3, 20 mg/kg

COc1cc2c(cc1OC)CN1CCc3cc4c(cc3[C@@H]1C2)OCO4 [DC037009, S-(−)-2,3-methylenedioxy-10,11-dimethoxy-5,8,13,13a-tetrahydro-6H-dibenzo[a,g]quinolizine]
IC50 (α1D-AR): 260 nM
pKa (pKa determination; methanol, solvent CH3OH, read-out: pKa (CH3OH)): 6.81
pKa (pKa determination; water, solvent H2O, read-out: pKa (H2O)): 7.28
variation of compound purity [1]: 0.5%
pH of solution after adding compound [2]: would increase
solubility in acidic solution compared with alkaline solution [2]: greater than that in alkaline solution
solubility ([2]; pH 2 solution, pH 2, simulated gastric fluid, pH = 2 solution, read-out: Solubility (1)): > 1000 µg/mL
solubility ([2]; pH 2 solution, pH 2, simulated gastric fluid, pH = 2 solution, read-out: Solubility (2)): > 1000 µg/mL
solubility ([2]; pH 4 solution, pH 4, aqueous buffer, pH = 4 solution, read-out: Solubility (1)): 401 µg/mL (≈ 1180 µM)
solubility ([2]; pH 4 solution, pH 4, aqueous buffer, pH = 4 solution, read-out: Solubility (2)): 403 µg/mL (≈ 1190 µM)
Dissolving capacity ([2]; pH = 1 solution): Slightly soluble
pH value (1) [2, 4]: 1.09
pH value (2) [2, 4]: 1.03
solubility ([2]; pH = 1 solution, pH 1, simulated gastric fluid, pH = 1 solution, read-out: Solubility (1)): > 1000 µg/mL
solubility ([2]; pH = 1 solution, pH 1, simulated gastric fluid, pH = 1 solution, read-out: Solubility (2)): > 1000 µg/mL
Dissolving capacity ([2]; pH = 2 solution): Slightly soluble
pH value (1) [2, 5]: 2.02
pH value (2) [2, 5]: 2.07
Dissolving capacity ([2]; pH = 4 solution): Slightly soluble
pH value (1) [2, 6]: 5.02
pH value (2) [2, 6]: 5.10
Dissolving capacity ([2]; pH = 6 solution): Sparingly
pH value (1) [2, 7]: 6.11
pH value (2) [2, 7]: 6.14
solubility ([2]; pH = 6 solution, pH 6, aqueous buffer, pH = 6 solution, read-out: Solubility (1)): 46 µg/mL (≈ 136 µM)
solubility ([2]; pH = 6 solution, pH 6, aqueous buffer, pH = 6 solution, read-out: Solubility (2)): 50.2 µg/mL (≈ 148 µM)
Dissolving capacity ([2]; pH = 8 solution): Sparingly
pH value (1) [2, 8]: 8.06
pH value (2) [2, 8]: 8.07
solubility ([2]; pH = 8 solution, pH 8, aqueous buffer, pH = 8 solution, read-out: Solubility (1)): < 10 µg/mL
solubility ([2]; pH = 8 solution, pH 8, aqueous buffer, pH = 8 solution, read-out: Solubility (2)): < 10 µg/mL
bioavailability ([3]; male, SD, plasma, oral, gavage 20 mg/kg versus intravenous 10 mg/kg): 34.2%
clearance ([3]; male, SD, plasma, intravenous injection 10 mg/kg, read-out: plasma clearance rate CL (converted)): 39.7 mL/min/kg
Vd ([3]; male, SD, plasma, intravenous injection 10 mg/kg, read-out: volume distribution stead state Vss): 3.49 ± 0.24 L/kg
half-life ([3]; male, SD, plasma, iv, 10 mg/kg, intravenous injection 10 mg/kg): 5.44 ± 0.85 h
AUC0-t ([3]; male, SD, plasma, iv, 10 mg/kg, intravenous injection 10 mg/kg, read-out: AUC0-t): 4200 ± 141 ng·h/mL
AUC(0-inf) [3, 9]: 2630 ng·h/mL
half-life [3, 9]: 4.2 h
AUC0-t ([3]; male, SD, plasma, po, 20 mg/kg, gavage 20 mg/kg, individual animals 1-3, read-out: AUC0-t): 2570 ng·h/mL
Cmax ([3]; male, SD, plasma, po, 20 mg/kg, gavage 20 mg/kg, individual animals 1-3, read-out: Cmax): 289 ng/mL
MRT ([3]; male, SD, plasma, po, 20 mg/kg, gavage 20 mg/kg, individual animals 1-3, read-out: MRT): 6.45 h
Tmax ([3]; male, SD, plasma, po, 20 mg/kg, gavage 20 mg/kg, individual animals 1-3, read-out: Tmax): 0.5 h
AUC(0-inf) [3, 10]: 2890 ng·h/mL
half-life [3, 10]: 3.26 ± 0.82 h
AUC0-t ([3]; male, SD, plasma, po, 20 mg/kg, gavage 20 mg/kg, mean of 3, read-out: AUC0-t): 2870 ± 798 ng·h/mL
Cmax ([3]; male, SD, plasma, po, 20 mg/kg, gavage 20 mg/kg, mean of 3, read-out: Cmax): 453 ± 147 ng/mL
MRT ([3]; male, SD, plasma, po, 20 mg/kg, gavage 20 mg/kg, mean of 3, read-out: MRT): 5.04 h
Tmax ([3]; male, SD, plasma, po, 20 mg/kg, gavage 20 mg/kg, mean of 3, read-out: Tmax): 0.67 ± 0.29 h
AUC0-t [3, 11]: 2260 ng·h/mL and 3771 ng·h/mL
AUC0-∞ [3, 11]: 2265 ng·h/mL and 3779 ng·h/mL
Cmax [3, 11]: 494 ng/mL and 575 ng/mL
MRT [3, 11]: 4.00 h and 4.67 h
Tmax [3, 11]: 1.00 h
t1/2 [3, 11]: 2.89 h and 2.70 h
AUC0-t ([3]; gavage 20 mg/kg, mean of 3, 20 mg/kg): 2260 ng·h/mL

COc1cc2c(cc1OCc1ccccc1)C[C@H]1c3cc4c(cc3CCN1C2)OCO4 [DC037016]
IC50 (α1D-AR): 191 nM
